≈ marks a conversion by molar mass, not a printed value.
Key:
Assay type in all cases: physicochemical
[1] = Chlorohydrin degradation product (CDP) formation in lyophilized carfilzomib/SBECD product by HPLC: pH, water and sodium chloride varied (Example 2)
Procedure: A multivariate statistical design of experiments was conducted to assess factors controlling the level of chlorohydrin degradation product as a function of processing parameters and storage time over six months. The complexation was performed in the proportion and parameters given in Example 1, with the following modifications: (i) the complexation process was performed at 2 L batch size; (ii) the final pH of solution before vial filling was varied for purposes of the experiment from 3.0, to 4.0; (iii) sodium chloride was spiked into SBECD in some experiments to create a high sodium chloride condition; (iv) water content of the lyophilized final product in stoppered vials was produced at high and low sodium chloride conditions via early termination and stoppering of vials to create a higher residual water content condition.
The solution of complexed carfilzomib for injection bulk solution pre-lyophilization included aqueous 5 mg/mL carfilzomib, 250 mg/mL Captisol® (SBECD) and 4.86 mg/mL citric acid, pH adjusted with aqueous sodium hydroxide. Compounding of the bulk solutions for lyophilization followed the procedure detailed in Example 1 with the following manipulations to create solutions with different specific attributes: • 1. pH was adjusted to 3.0 and 4.0 • 2. Sodium chloride was spiked into the Captisol® to create a “High Chloride” condition Captisol® manufactured by Cydex, a subsidiary of Ligand, has a standard product analysis range for sodium chloride from 0.05% to 0.2% (w/v). […] 400 g of this Captisol® was required per batch for the process to be performed at 2 L scale batches of complexation processing (in same proportions and general parameters per Example 1). To create the “high chloride” condition, 0.6 g of NaCl was added to 399.4 g of Captisol® which thus mimicked what a batch containing 0.2% chloride Captisol® would be comprised of.
In order to generate two (2) moisture content conditions in the final lyophilized vials, two (2) sets of 61.8 mg/vial (of CFZ-API) samples were lyophilized. The first cycle generated the “dry” sample set of vials containing approximately 0.6% residual water per Example 1 lyophilization parameters. For the second sample set, lyophilization was terminated and vials stoppered earlier in the secondary drying phase to generate the “wet” condition vials, with residual moisture approximately 2.4% water per vial initially.
The bulk solution of complexed carfilzomib was analyzed during manufacture by High Performance Liquid Chromatography (HPLC) to accurately quantify the concentration of dissolved and complexed carfilzomib drug substance. Subsequently, additional water was added to accurately dilute the bulk complexed solution. After this dilution step, HPLC was used again to ensure a target concentration of 5.0 mg/mL was achieved. Samples of the three (3) final bulk solutions were analyzed for potency and purity confirmation testing by HPLC. […] Karl Fischer Coulometry method was used for the water content determination in the lyophilized drug product.

[2] = Slurry-based complexation/solubilization of CFZ-API in SBECD with citric acid (Example 1); conditions: SBECD/WFI/citric acid slurry, 2-8° C., mixed a further 24 hours
Procedure: In a 525 L stainless steel jacketed cooled tank controlled to 2° C.-8° C., a suspension of 2.0 kg carfilzomib-API (CFZ-API), 246 kg water for injection (WFI), and 100 kg sulfobutylether beta-cyclodextrin (SBECD) was prepared. Specifically, in the 525 L stainless steel jacketed cooled tank controlled to 2° C.-8° C., 100 kg SBECD was dissolved in 246 kg WFI. The Carfilzomib suspension was then prepared using 2.0 kg of CFZ-API. Mixing was performed using an impeller mixer to maintain suspension of the CFZ-API solids and dissolve the SBECD. In the same vessel, a probe style rotor-stator high shear mixer (homogenizer) was used as well as the low shear impeller. The high shear mixer was operated for approximately 1 hour yielding an even suspension and reduction of particle size for any larger primary particles or agglomerated API. After a suspension was achieved, 1.96 kg of citric acid was added as a 16% aqueous solution. The pH of the solution was then lowered inducing partial solubilization of the CFZ-API followed by and complexation due to the presence of SBECD. Mixing was continued for a further 24 hours with both the impeller and the high shear mixer and a dissolved concentration of CFZ-API of greater than 5.1 mg/mL was achieved. […]

[3] = Compounding study: dissolved carfilzomib versus time in 25% (w/v) SBE-β-CD (Example 5); conditions: CFZ-API suspension in 25% (w/v) SBE-β-CD solution, aqueous with cosolvent or surfactant or cyclodextrin, thermodynamic from solid, read-out: solubilized concentration during compounding
Procedure: SBE-β-CD was dissolved in WFI to achieve 25% (w/v) solution. A suspension of CFZ-API in the SBE-β-CD solution was prepared by homogenization per the solubility study
API solids were added in all experiments to theoretically yield a ˜6 mg/mL final solution to mimic the commercial process
After homogenization, pH was lowered using citric acids to affect solubilization, while continuing mixing up 24 hours. Then, all preparations were adjusted to pH 3.5. Dissolved concentration as a function of time was measured by sampling, filtration, then HPLC analysis to monitor the kinetics of complexation in the slurry based process.

% Area of CDP after 6 months (HPLC data) ([1]; 5° C., pH 3.00, water 0.7%, sodium chloride 0.05%): 0.00 % Area | % Area of CDP after 6 months (HPLC data) ([1]; 5° C., pH 3.00, water 0.7%, sodium chloride 0.2%): 0.13 % Area | % Area of CDP after 6 months (HPLC data) ([1]; 5° C., pH 3.00, water 2%, sodium chloride 0.05%): 0.02 % Area | % Area of CDP after 6 months (HPLC data) ([1]; 5° C., pH 3.00, water 2%, sodium chloride 0.2%): 0.28 % Area | % Area of CDP after 6 months (HPLC data) ([1]; 5° C., pH 4.00, water 0.7%, sodium chloride 0.05%): 0.00 % Area | % Area of CDP after 6 months (HPLC data) ([1]; 5° C., pH 4.00, water 0.7%, sodium chloride 0.2%): 0.08 % Area | % Area of CDP after 6 months (HPLC data) ([1]; 5° C., pH 4.00, water 2%, sodium chloride 0.05%): 0.02 % Area | % Area of CDP after 6 months (HPLC data) ([1]; 5° C., pH 4.00, water 2%, sodium chloride 0.2%): 0.18 % Area | % Area of CDP after 6 months (HPLC data) ([1]; 25° C., pH 3.00, water 0.7%, sodium chloride 0.05%): 0.14 % Area | % Area of CDP after 6 months (HPLC data) ([1]; 25° C., pH 3.00, water 0.7%, sodium chloride 0.2%): 0.70 % Area | % Area of CDP after 6 months (HPLC data) ([1]; 25° C., pH 3.00, water 2%, sodium chloride 0.05%): 0.55 % Area | % Area of CDP after 6 months (HPLC data) ([1]; 25° C., pH 4.00, water 0.7%, sodium chloride 0.05%): 0.09 % Area | % Area of CDP after 6 months (HPLC data) ([1]; 25° C., pH 4.00, water 0.7%, sodium chloride 0.2%): 0.36 % Area | % Area of CDP after 6 months (HPLC data) ([1]; 25° C., pH 4.00, water 2%, sodium chloride 0.05%): 0.35 % Area | dissolved concentration of CFZ-API [2]: greater than 5.1 mg/mL | solubility at 2 h ([3]; first 2 hours): 4500 µg/mL (≈ 6.25 mM) | solubility ([3]; slow equilibration phase, in >20 hours): 5500 µg/mL (≈ 7.64 mM)
SMILES: CC(C)C[C@H](NC(=O)[C@H](CCc1ccccc1)NC(=O)CN1CCOCC1)C(=O)N[C@@H](Cc1ccccc1)C(=O)N[C@@H](CC(C)C)C(=O)[C@@]1(C)CO1 [carfilzomib]
